Consider 1 compound from patent US8247397B2, “Combinations of phosphoinositide 3-kinase inhibitor compounds and chemotherapeutic agents, and methods of use” (Genentech, Inc., priority 2007, dated 2012).

This assay deals with pAkt (Ser473) in MDA-MB-361 cells. As to the kind of experiment: Phospho AKT induction assay. Type of assay: cell-based. The conditions noted are these: synergistic cell line MDA-MB-361, EC80 dosing, 1 hr to 24 hr. On the procedure:
Phospho Akt (pAkt) levels can be measured by the method described in Example 18. Low CI correlates with the effect of the chemotherapeutic to induce an increase in pAkt. Levels of pAkt (Ser473) were determined using bead kits from Biosource (Carlsbad, Calif.) and the Luminex Bio-Plex system (Bio-Rad, Hercules, Calif.).
In a 6-well tissue culture plate cells were seeded at 5×10^5 cells per well overnight. Cells were treated with an EC80 of the chemotherapeutic agent. Following treatment, cells were washed once with cold PBS and lysed in 1× Cell Extraction Buffer from Biosource (Carlsbad, Calif.) supplemented with protease inhibitors (Roche, Mannheim, Germany), 1 mM PMSF, and Phosphatase Inhibitor Cocktails 1 and 2 from Sigma (St. Louis, Mo.). Determination of protein concentration was performed using the Pierce BCA Protein Assay Kit (Rockford, Ill.). Levels of pAkt (Ser^473) and total Akt were assessed using bead kits from Biosource (Carlsbad, Calif.) and the Luminex Bio-Plex system (Bio-Rad, Hercules, Calif.).

Each structure is given as a SMILES string.

Take `Nc1ccn([C@@H]2O[C@H](CO)[C@@H](O)C2(F)F)c(=O)n1` [Gemcitabine, 4-amino-1-[3,3-difluoro-4-hydroxy-5-(hydroxymethyl)tetrahydrofuran-2-yl]-1H-pyrimidin-2-one]: the pAkt levels result is “increased pAkt levels”.
